Data reported in patent US9345258B2, “Synergistic phytochemical composition and a process for preparation thereof” (priority 2011, dated 2016).

Tested on: primary OA
Test: Randomized, single blind, placebo-controlled trial in painful osteoarthritis
Assay type: in vivo, patients
Conditions: 42 days treatment
Method: The present trial was earned out to evaluate the effectiveness of the composition of the invention in the treatment of painful OA [a randomized, single blind, placebo-controlled trial]. 120 patients (37 males and 83 females) with primary OA received either the composition of the invention (500 mg twice daily) or Glucosamine sulphate (750 mg twice daily) or placebo (500 mg twice daily) or combination of the composition of the invention and Glucosamine sulphate for 42 days. During the treatment period two follow up visits on day 21st and day 42nd, efficacy was evaluated in terms of change in the intensity/severity of symptoms (as measured by VAS, WOMAC scale) and examination by orthopaedician (as measured by CGIC).

In the case of `N[C@H]1C(O)O[C@H](CO)[C@@H](O)[C@@H]1O.O=S(=O)(O)O` (stereo partly shown) [Glucosamine sulphate], the “signs and symptoms of OA” value was “Overall improvement”.
